Patent US9693556B2, “Herbicidal pyridazinone derivatives” (SYNGENTA LIMITED, priority 2011, dated 2017)

Key:
Type in all cases: in vivo
[1] = system: Alopecurus myosuroides (ALOMY); assay: Pre-emergence herbicidal glasshouse test on Alopecurus myosuroides; details: pre-emergence; 1000 g/h; evaluated after 13 days
In short: (§1)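 Pre-emergence treatment came one day after sowing, post-emergence treatment after eight days' growth; both used 1000 g/h in a 0.5% Tween 20 acetone/water vehicle. Percent damage, scored 1–5, was read 13 days later.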

Setaria faberi (SETFA) [2] = assay: Pre-emergence herbicidal glasshouse test on Setaria faberi; details: pre-emergence; 1000 g/h; evaluated after 13 days
In short: as §1

[3] = system: Echinochloa crus-galli (ECHCG); assay: Pre-emergence herbicidal glasshouse test on Echinochloa crus-galli; details: pre-emergence; 1000 g/h; evaluated after 13 days
In short: as §1

Solanum nigrum (SOLNI) [4] = assay: Pre-emergence herbicidal glasshouse test on Solanum nigrum; details: pre-emergence; 1000 g/h; evaluated after 13 days
In short: as §1

[5] = system: Amaranthus retoflexus (AMARE); assay: Pre-emergence herbicidal glasshouse test on Amaranthus retoflexus; details: pre-emergence; 1000 g/h; evaluated after 13 days
In short: as §1

[6] = system: Ipomoea hederacea (IPOHE); assay: Pre-emergence herbicidal glasshouse test on Ipomoea hederacea; details: pre-emergence; 1000 g/h; evaluated after 13 days
In short: as §1

[7] = system: Alopecurus myosuroides (ALOMY); assay: Post-emergence herbicidal glasshouse test on Alopecurus myosuroides; details: post-emergence; 1000 g/h; evaluated after 13 days
In short: as §1

Setaria faberi (SETFA) [8] = assay: Post-emergence herbicidal glasshouse test on Setaria faberi; details: post-emergence; 1000 g/h; evaluated after 13 days
In short: as §1

[9] = system: Echinochloa crus-galli (ECHCG); assay: Post-emergence herbicidal glasshouse test on Echinochloa crus-galli; details: post-emergence; 1000 g/h; evaluated after 13 days
In short: as §1

Solanum nigrum (SOLNI) [10] = assay: Post-emergence herbicidal glasshouse test on Solanum nigrum; details: post-emergence; 1000 g/h; evaluated after 13 days
In short: as §1

[11] = system: Amaranthus retoflexus (AMARE); assay: Post-emergence herbicidal glasshouse test on Amaranthus retoflexus; details: post-emergence; 1000 g/h; evaluated after 13 days
In short: as §1

[12] = system: Ipomoea hederacea (IPOHE); assay: Post-emergence herbicidal glasshouse test on Ipomoea hederacea; details: post-emergence; 1000 g/h; evaluated after 13 days
In short: as §1

Row | SMILES | PRE Application ALOMY herbicidal damage (five point scale) [1] | PRE Application SETFA herbicidal damage (five point scale) (Setaria faberi (SETFA) [2]) | PRE Application ECHCG herbicidal damage (five point scale) [3] | PRE Application SOLNI herbicidal damage (five point scale) (Solanum nigrum (SOLNI) [4]) | PRE Application AMARE herbicidal damage (five point scale) [5] | PRE Application IPOHE herbicidal damage (five point scale) [6] | POST Application ALOMY herbicidal damage (five point scale) [7] | POST Application SETFA herbicidal damage (five point scale) (Setaria faberi (SETFA) [8]) | POST Application ECHCG herbicidal damage (five point scale) [9] | POST Application SOLNI herbicidal damage (five point scale) (Solanum nigrum (SOLNI) [10]) | POST Application AMARE herbicidal damage (five point scale) [11] | POST Application IPOHE herbicidal damage (five point scale) [12]
1 | CC[S+]([O-])c1ccccc1-c1cnn(C)c(=O)c1O (stereo not drawn) [Compound 1.041] | 3 (3=40-59% damage) | 2 (2=20-39% damage) | 4 (4=60-79% damage) | 2 (2=20-39% damage) | 4 (4=60-79% damage) | 1 (1=0-19% damage) | 4 (4=60-79% damage) | 5 (5=80-100% damage) | 5 (5=80-100% damage) | 5 (5=80-100% damage) | 5 (5=80-100% damage) | 5 (5=80-100% damage)
2 | CCn1ncc(-c2c(Cl)cccc2Cl)c(O)c1=O [Compound 1.011] | 1 (1=0-19% damage) | 1 (1=0-19% damage) | 1 (1=0-19% damage) | 1 (1=0-19% damage) | 1 (1=0-19% damage) | 1 (1=0-19% damage) | 2 (2=20-39% damage) | 2 (2=20-39% damage) | 2 (2=20-39% damage) | 4 (4=60-79% damage) | 4 (4=60-79% damage) | 2 (2=20-39% damage)
3 | COc1ccc(C(C)C)cc1-c1c(C(F)(F)F)ccn(-c2cnn(C)c(=O)c2O)c1=O [Compound 7.015] | 3 (3=40-59% damage) | 4 (4=60-79% damage) | 3 (3=40-59% damage) | 5 (5=80-100% damage) | 5 (5=80-100% damage) | 4 (4=60-79% damage) | 2 (2=20-39% damage) | 3 (3=40-59% damage) | 4 (4=60-79% damage) | 5 (5=80-100% damage) | 5 (5=80-100% damage) | 3 (3=40-59% damage)
4 | C#Cn1ncc(-c2ccc(Cl)cc2S(C)(=O)=O)c(O)c1=O [Compound 2.011] | 5 (5=80-100% damage) | 5 (5=80-100% damage) | 5 (5=80-100% damage) | 5 (5=80-100% damage) | 5 (5=80-100% damage) | 5 (5=80-100% damage) | 5 (5=80-100% damage) | 5 (5=80-100% damage) | 5 (5=80-100% damage) | 5 (5=80-100% damage) | 5 (5=80-100% damage) | 5 (5=80-100% damage)
5 | Cc1ccc(-c2c(C(F)(F)F)ccn(-c3cnn(C)c(=O)c3O)c2=O)cc1 [Compound 7.006] | 3 (3=40-59% damage) | 4 (4=60-79% damage) | 5 (5=80-100% damage) | 5 (5=80-100% damage) | 5 (5=80-100% damage) | 2 (2=20-39% damage) | 3 (3=40-59% damage) | 3 (3=40-59% damage) | 5 (5=80-100% damage) | 5 (5=80-100% damage) | 4 (4=60-79% damage) | 3 (3=40-59% damage)
6 | CS(=O)(=O)c1cc(Cl)ccc1-c1cnn(C2CC2)c(=O)c1O [Compound 2.014] | 5 (5=80-100% damage) | 5 (5=80-100% damage) | 5 (5=80-100% damage) | 5 (5=80-100% damage) | 5 (5=80-100% damage) | 5 (5=80-100% damage) | 5 (5=80-100% damage) | 5 (5=80-100% damage) | 5 (5=80-100% damage) | 5 (5=80-100% damage) | 5 (5=80-100% damage) | 5 (5=80-100% damage)
7 | Cn1ncc(-n2ccc(C(F)(F)F)c(-c3ccc(C(F)(F)F)cc3)c2=O)c(O)c1=O [Compound 7.035] | 5 (5=80-100% damage) | 5 (5=80-100% damage) | 5 (5=80-100% damage) | 5 (5=80-100% damage) | 5 (5=80-100% damage) | 3 (3=40-59% damage) | 5 (5=80-100% damage) | 5 (5=80-100% damage) | 5 (5=80-100% damage) | 5 (5=80-100% damage) | 5 (5=80-100% damage) | 4 (4=60-79% damage)
8 | Cn1ncc(-c2ccc(S(C)(=O)=O)c(OCC(F)(F)F)c2Cl)c(O)c1=O [Compound 1.137] | 1 (1=0-19% damage) | 1 (1=0-19% damage) | 1 (1=0-19% damage) | 3 (3=40-59% damage) | 2 (2=20-39% damage) | 1 (1=0-19% damage) | 1 (1=0-19% damage) | 5 (5=80-100% damage) | 5 (5=80-100% damage) | 5 (5=80-100% damage) | 5 (5=80-100% damage) | 5 (5=80-100% damage)
9 | COCc1ccc(-c2cnn(C)c(=O)c2O)c(S(C)(=O)=O)c1 [Compound 2.040] | 5 (5=80-100% damage) | 4 (4=60-79% damage) | 5 (5=80-100% damage) | 5 (5=80-100% damage) | 5 (5=80-100% damage) | 3 (3=40-59% damage) | 5 (5=80-100% damage) | 5 (5=80-100% damage) | 5 (5=80-100% damage) | 5 (5=80-100% damage) | 5 (5=80-100% damage) | 5 (5=80-100% damage)
10 | Cn1ncc(-n2ccc(C(F)(F)F)c(-c3cccc(Cl)c3)c2=O)c(O)c1=O [Compound 1.037] | 4 (4=60-79% damage) | 4 (4=60-79% damage) | 5 (5=80-100% damage) | 5 (5=80-100% damage) | 5 (5=80-100% damage) | 1 (1=0-19% damage) | 4 (4=60-79% damage) | 4 (4=60-79% damage) | 4 (4=60-79% damage) | 5 (5=80-100% damage) | 5 (5=80-100% damage) | 4 (4=60-79% damage)
